Holding throughout (format): cell-based
Experiment [1] relates to Candida albicans (ATCC 10231). Nature of the experiment: MIC and MBC determination (broth dilution). As to the method:
(§1) The determination of the MIC and MBC of 9-decenoic acid conformed to the procedure printed in the Federal Register, June 1994 and the present NCCLS M11-A4 protocol. Challenge organisms were prepared as follows. The MIC and MBC of 9-decenoic acid and the methyl ester of 9-decenoic acid were determined for the following challenge organisms: Staphylococcus aureus (ATCC 6538), Pseudomonas aeruginosa (ATCC 15442), Staphylococcus epidermidis (ATCC 12228), Klebsiella pneumoniae (ATCC 4352), Escherichia coli 0157:H7 (ATCC 43895) and Candida albicans (ATCC 10231). Stock cultures of each organism were transferred onto suitable culture media, Mueller-Hinton Agar (MHA) plates, and incubated for 24 hours (+2 hours) at 37° C. (+2° C.). On the day of the test, the top of at least three to five well-isolated colonies were transferred via wire loop to a tube containing 4 to 5 ml of Trypticase Soy Broth (TSB). The TSB culture was incubated for 2 to 6 hours and turbidity was adjusted with sterile saline to achieve the turbidity of a McFarland 0.5 Standard.
(§2) The concentrated 9-decenoic acid (97%) was diluted in Mueller-Hinton Broth (MHB) to yield a 25,000 ppm stock solution of the 9-decenoic acid. For each organism, 12 dilutions of the 9-decenoic acid in MHB were prepared ranging from 0.25% to 0.00049%. The test solution of the methyl ester of 9-decenoic acid was formulated in the same manner.
(§3) A 2-ml aliquot of appropriately diluted 9-decenoic acid solution or methyl ester of 9-decenoic acid was placed in each tube. Each tube was inoculated with 0.05 ml of a 1:10 dilution of one challenge organism. Tubes were incubated at 37° C. (±2° C.) for 20-24 hours and observed for microbial growth visually and by spectrophotometer. […] (±2° C.) for 20-24 hours and visually observed for growth.
(§4) Controls were run for sterility, viability and organism confirmation. It was determined that all cultures were viable and pure.
(§5) The MBC was defined as the concentration of 9-decenoic acid or the methyl ester of 9-decenoic acid that completely eradicated viable organisms from the test system.
For orientation: In broth dilution the organism is exposed to a series of concentrations in liquid medium.

For experiment [2], the system named is Klebsiella pneumoniae (ATCC 4352). The experiment can be described thus: MIC and MBC determination (broth dilution). The conditions noted are these: Mueller-Hinton Broth, 20-24 h, 37° C. As for the experimental part: as §1, §2, §3, §4, §5
In experiment [3] the test system is Escherichia coli 0157:H7 (ATCC 43895). The experiment can be described thus: MIC and MBC determination (broth dilution). As to the method: as §1, §2, §3, §4, §5
Experiment [4] deals with Staphylococcus epidermidis (ATCC 12228). The experiment can be described thus: MIC and MBC determination (broth dilution). The conditions noted are these: subculture on TSA. As for the experimental part:
as §1, §2, §3, §4, §5

For experiment [5], the system named is Pseudomonas aeruginosa (ATCC 15442). Nature of the experiment: MIC and MBC determination (broth dilution). The conditions noted are these: Mueller-Hinton Broth, 20-24 h, 37° C. As to the method:
as §1, §2, §3, §4, §5

For another experiment, the system named is all organisms. The experiment can be described thus: Time kill test, all organisms of Example 2. The following applies: even after 10 minutes, all concentrations (0.01, 0.05 and 0.1%). As to the method:
The assessment of efficacy of 9-decenoic acid against a spectrum of microorganisms was determined using the American Society for Testing and Materials (ASTM) procedure entitled “Standard Test Method for the Assessment of Microbiocidal Activity of Test Materials Using a Time-Kill Procedure,” October 1998. This procedure incorporates the recommendations described in the “Manual of Clinical Microbiology,” 5th ed., edited by A. B. Balows et al., ASM, Washington, and is directed by the Federal Register, June 1994.
Challenge organisms were prepared as follows. Cultures of the following organisms were obtained: Staphylococcus aureus (ATCC 6538), Pseudomonas aeruginosa (ATCC 15442), Staphylococcus epidermidis (ATCC 12228), Klebsiella pneumoniae (ATCC 4352), Escherichia coli 0157:H7 (ATCC 43895) and Candida albicans (ATCC 10231). The stock cultures were transferred to sterile tubes and sterile tryptic soy broth (TSB) was added to the cultures. […]
Concentrated 9-decenoic acid (97%) was diluted in filter sterilized isopropanol to yield a 25,000 ppm stock solution. […] The pH was determined for each dilution; pH values ranged from 4.4-4.1. […]
At each exposure sample time, a 1.0 ml aliquot of the inoculated 9-decenoic acid suspension was transferred to 9.0 ml of D/E Neutralizing Broth. […] The plates were enumerated, recorded and log kill determined for each time point. […]

[6] abbreviates: Mueller-Hinton Broth, 20-24 h, 37° C.

A value given as a limit tells only on which side of the number the result lay.

With `C=CCCCCCCCC(=O)OC` [Methyl ester of 9-decenoic acid, methyl ester of 9-decenoic acid], the MIC is recorded as 0.0156% in experiment [1] (setting [6]), 0.0625% in experiment [2], 0.125% in experiment [3] (setting [6]) and 0.0625% in experiment [5]. The MBC in experiment [1] (subculture on TSA) was 0.0156%; in experiment [3] (subculture on TSA), 0.125%; in experiment [4] it was 0.25%. Besides, in the experiment with all organisms, the log reduction is given as below 1 log.

Source of the values: patent US20080033026A1, “Antimicrobial compositions, methods and systems” (priority 2006, published 2008).
